Reference: the CombiSolv-Exp solvation set (Vermeire and Green 2021)

Test: solvent given as SMILES

CCCC(C)C
Conditions	solvation free energy, 298 K [kcal/mol]
in Brc1ccccc1	-3.41
in C1CCCCC1	-3.86
in C1CCOC1	-3.7
in C1COCCO1	-3.03
in C=CCCCC	-3.84
in C=CCCCCCC	-3.73
in C=CCCCCCCCC	-3.64
in C=CCCCCCCCCCCCCCC	-3.33
in CC1COC(=O)O1	-1.98
in CC#N	-2.5
in CC(=O)N(C)C	-2.65
in CC(=O)O	-2.72
in CC(=O)c1ccccc1	-2.84
in CC(C)=O	-3.08
in CC(C)CC(C)(C)C	-3.72
in CC(C)CCCC(C)CCCC(C)CCCCC(C)CCCC(C)CCCC(C)C	-3.28
in CC(C)CCO	-3.23
in CC(C)O	-3.02
in CC(C)OC(C)C	-3.78
in CCBr	-3.88
in CCC#N	-2.84
in CCC(C)=O	-3.27
in CCCC#N	-3.05
in CCCC(=O)OCC	-3.46
in CCCC(C)=O	-3.34
in CCCCC	-3.93
in CCCCCC	-3.87
in CCCCCC(C)=O	-3.35
in CCCCCCC	-3.78
in CCCCCCCC	-3.71
in CCCCCCCCC	-3.67
in CCCCCCCCCC	-3.63
in CCCCCCCCCCCC	-3.52
in CCCCCCCCCCCCCCCC	-3.45
in CCCCCCCCCOC(=O)c1ccccc1C(=O)OCCCCCCCCC	-3.02
in CCCCCCCCO	-3.18
in CCCCCCOC(C)=O	-3.42
in CCCCCO	-3.3
in CCCCO	-3.12
in CCCCOC(C)=O	-3.4
in CCCCOCCCC	-3.7
in CCCO	-3.01
in CCN(CC)CC	-3.81
in CCO	-2.97
in CCOC(C)=O	-3.29
in CCOCC	-3.78
in CCOCCOCCOCC	-3.21
in CCOc1ccccc1	-3.26
in CN1CCCC1=O	-2.55
in CN1CCCCC1=O	-2.58
in CN(C)C=O	-2.52
in CN(C)P(=O)(N(C)C)N(C)C	-2.88
in CNC=O	-2.24
in CO	-2.68
in COC(C)(C)C	-3.77
in COC(C)=O	-3.14
in COCCO	-2.53
in COc1ccccc1	-3.2
in CS(C)=O	-1.78
in Cc1ccc(C)cc1	-3.64
in Cc1ccccc1	-3.65
in Cc1ccccn1	-3.28
in ClC(Cl)(Cl)Cl	-3.85
in ClC(Cl)Cl	-3.72
in ClCCCl	-3.24
in ClCCl	-3.54
in Clc1ccccc1	-3.62
in FC(F)(F)C(F)(F)C(F)(F)C(F)(F)C(F)(F)C(F)(F)C(F)(F)C(F)(F)F	-2.43
in FC(F)(F)C(F)(F)C(F)(F)C(F)(F)C(F)(F)C(F)(F)F	-2.53
in Fc1ccccc1	-3.63
in ICI	-1.94
in N#Cc1ccccc1	-2.91
in Nc1ccccc1	-2.28
in O	2.51
in O=C1CCCCC1	-3.16
in O=C1CCCO1	-2.1
in OCc1ccccc1	-2.47
in S=C=S	-3.82
in c1ccccc1	-3.61
in c1ccncc1	-3.06

CC1=CC2C(CC1)C2(C)C (stereo not drawn)
Conditions	solvation free energy, 298 K [kcal/mol]
in O	0.78

CC1=CC2C(=C(C)CCC2C(C)C)CC1 (stereo not drawn)
Conditions	solvation free energy, 298 K [kcal/mol]
in O	-0.4

CC(N)C(=O)C1OS(=O)OCC2C1C1(Cl)C(Cl)=C(Cl)C2(Cl)C1(Cl)Cl (stereo not drawn)
Conditions	solvation free energy, 298 K [kcal/mol]
in CCCCCCCCO	-11.5

CN(C)N=O
Conditions	solvation free energy, 298 K [kcal/mol]
in CC(C)CC(C)(C)C	-3.83
in O	-6.02

CCCCCCCCC=O
Conditions	solvation free energy, 298 K [kcal/mol]
in NC=O	-4.37
in O	-2.08

CC(C(=O)O)c1ccc(-c2ccccc2)c(F)c1 (stereo not drawn)
Conditions	solvation free energy, 298 K [kcal/mol]
in C1COCCO1	-16.2
in CC(C)=O	-16.1
in CCCCCCCO	-15.6
in CCCCCCO	-15.6
in CCCCCO	-15.7
in CCCCO	-15.7
in CCCO	-15.8
in CCO	-15.9
in CCOC(C)=O	-15.9
in CO	-15.9
in O	-8.42

CC(C)(C)Cl
Conditions	solvation free energy, 298 K [kcal/mol]
in Brc1cccc2ccccc12	-3.15
in Brc1ccccc1	-3.44
in C1CCCCC1	-3.64
in C1CCOCC1	-3.82
in C1COCCO1	-3.36
in C=CCCCCCCCCCCCCCC	-3.07
in CC(=O)N(C)C	-3.1
in CC(=O)OCc1ccccc1	-3.28
in CC(C)(C)O	-2.95
in CC(C)=O	-3.46
in CC(C)CC(C)(C)C	-3.29
in CC(C)OC(C)C	-3.53
in CC(O)C(C)O	-2.37
in CC(O)CCO	-2.14
in CC(O)CO	-2.29
in CCC(C)=O	-3.66
in CCC(O)CO	-2.76
in CCCCCC	-3.43
in CCCCCCC	-3.47
in CCCCCCCC	-3.35
in CCCCCCO	-3.14
in CCCCCO	-3.23
in CCCCO	-3.08
in CCO	-3.22
in CCOC(C)=O	-3.66
in CCOCC	-3.38
in CN1CCCC1=O	-2.97
in CN(C)C=O	-3.15
in CNC=O	-3.02
in CO	-3.11
in COC(C)(C)C	-3.7
in COCCO	-3.3
in Cc1ccc(C)cc1	-3.58
in ClC(Cl)(Cl)Cl	-3.66
in ClCCCl	-3.69
in Clc1ccccc1	-3.56
in N#Cc1ccccc1	-3.15
in O	1.09
in O=C1CCCCC1	-3.64
in OCCO	-1.8
in OCCOCCO	-2.39
in OCCOCCOCCO	-2.49
in c1ccc2ncccc2c1	-3.18
in c1ccccc1	-3.93

CCCC=CC=O
Conditions	solvation free energy, 298 K [kcal/mol]
in O	-3.68

[N-]=[N+]=O
Conditions	solvation free energy, 298 K [kcal/mol]
in CC(C)=O	-1.05
in CC(C)CC(C)(C)C	-0.69
in CC(C)O	-0.48
in CCC(C)=O	-0.94
in CCCCCC	-0.74
in CCCCCCC	-0.65
in CCCCCCCC	-0.6
in CCCCCCCCCC	-0.49
in CCCCCCCCCCO	-0.55
in CCCCCCCCO	-0.45
in CCCCCCO	-0.49
in CCCCCO	-0.5
in CCCCO	-0.55
in CCCCOC(C)=O	-0.98
in CCCO	-0.59
in CCO	-0.61
in CO	-0.69
in COC(C)=O	-1.09
in ClC(Cl)(Cl)Cl	-0.86
in ClC(Cl)Cl	-0.97
in Clc1ccccc1	-0.68
in O	0.31

Clc1ccc(C(c2ccc(Cl)cc2)C(Cl)Cl)cc1
Conditions	solvation free energy, 298 K [kcal/mol]
in CCCCCCCCO	-13.7
in O	-4.88

CCCCOCCOC(=O)c1ccccc1C(=O)OCCOCCCC
Conditions	solvation free energy, 298 K [kcal/mol]
in O	-12.8

S=C=S
Conditions	solvation free energy, 298 K [kcal/mol]
in C1CCCC1	-3.57
in C1COCCO1	-3.03
in CC(C)=O	-3.07
in CC(C)CC(C)(C)C	-3.25
in CCC(C)=O	-3.1
in CCCCCCC	-3.33
in CCCCCCCC	-3.29
in CCCCCCCCO	-3.11
in CCCCCO	-3.31
in CCCCO	-3.08
in CCO	-3.1
in CCOC(C)=O	-3.12
in CN(C)C=O	-3
in Cc1ccc(C)cc1	-3.55
in ClC(Cl)(Cl)Cl	-3.62
in ClC(Cl)=C(Cl)Cl	-3.52
in ClCCCl	-3.29
in N#Cc1ccccc1	-3.18
in O	0.16
in O=C1CCCCC1	-3.31
in c1ccccc1	-3.6

CCCC(O)C(C)C (stereo not drawn)
Conditions	solvation free energy, 298 K [kcal/mol]
in CCCCCCCC	-5.34
in CCCCCCCCCC	-5.46

CC(C)C#N
Conditions	solvation free energy, 298 K [kcal/mol]
in CCCCCCCCCCCCCCCC	-3.08
in CCCCCCCCO	-3.92
in O	-3.31
in [2H]O[2H]	-3.29

c1ccoc1
Conditions	solvation free energy, 298 K [kcal/mol]
in CC(=O)N(C)C	-3.72
in CCCCN(C=O)CCCC	-3.27
in CNC(C)=O	-3.23
in O	-0.9

CC[N+](=O)[O-]
Conditions	solvation free energy, 298 K [kcal/mol]
in C=CCCCCCCCCCCCCCC	-3.33
in CCC(C)=O	-5.25
in CCCC(C)C	-4.09
in CCCCCCC	-3.34
in CCCCCCCC	-3.37
in CCCCCCCCCCCCCCCC	-3.17
in CCCCCCCCO	-3.93
in COC(C)=O	-5.46
in O	-3.72
in [2H]O[2H]	-3.75

COC(=O)OC
Conditions	solvation free energy, 298 K [kcal/mol]
in C1CCCCC1	-3.6
in CC(Cl)(Cl)Cl	-4.63
in CCC1CO1	-4.73
in CCCO	-3.72
in COC(C)(C)C	-4.24
in ClC(Cl)(Cl)Cl	-4.27
in ClCCCl	-5.04
in O	-3.53
in c1ccccc1	-4.66

O=[N+]([O-])c1ccc(CCl)cc1
Conditions	solvation free energy, 298 K [kcal/mol]
in Brc1ccccc1	-5.65
in CC(C)=O	-10
in CC(C)CCO	-8.34
in CC(C)CO	-8.25
in CCC(C)O	-8.28
in CCCC(C)O	-8.24
in CCCCCO	-8.4
in CCCCO	-8.49
in CCCCOC(C)=O	-9.67
in CCCO	-8.54
in CCOCC	-9.26
in O	-5.14

C=CCC(C)(C)C
Conditions	solvation free energy, 298 K [kcal/mol]
in C=CCCCCCCCCCCCCCC	-3.59
in O	1.53

CC(=O)OC1CCC2(C)C(=CCC3C2CCC2(C)C(C(C)CCCC(C)C)CCC32)C1 (stereo not drawn)
Conditions	solvation free energy, 298 K [kcal/mol]
in O	-5.48
